Reference: PubChem BioAssay AID1250 (SRMLSC, 2008)
The source made the active and inactive calls.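 The calls were made as follows: active = inhibition of at least 30% at one or more tested concentrations; inactive = inhibition below 30% at every dose.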

assay: inhibitors of Bluetongue virus cytopathic effect, confirmation, arbovirus, BSR cells (AID 1250); conditions: BSR cells, Bluetongue virus CPE, ATP luminescence, 72 h; at 20 µM (top of the series)

Structure (SMILES) | CPE inhibition
COC(=O)c1ccc(NC(=O)c2ccccc2NS(C)(=O)=O)cc1 | 22.4% (inactive)
CN1CCN(C(=S)NC(=O)c2ccc(Cl)cc2)CC1 | 29.2% (inactive)
O=C1CC(=O)N(Cc2ccco2)C(=O)N1 | 2.11% (inactive)
CCOC(=O)CSc1nc2c(sc(=S)n2-c2ccc(OCC)cc2)c(=O)[nH]1 | 19.1% (inactive)
Cc1csc(NC(=O)c2ccc(C)c(S(=O)(=O)N3CCCCC3)c2)n1 | 24.1% (inactive)
Cc1ccc(C)c(N2CCN(C(=O)Cc3ccc(-n4c(=O)[nH]c5ccsc5c4=O)cc3)CC2)c1 | 13.2% (inactive)
O=C(Nc1nc(-c2ccccc2)ns1)c1cccs1 | 15.2% (inactive)
N#Cc1c2n(c3c(=S)nc[nH]c13)CCCCC2 | 9.66% (inactive)
COCC(C)n1c(SCc2nc3ccccc3c(=O)[nH]2)nc2ccccc2c1=O (configuration not stated) | 29.9% (inactive)
O=C(O)c1ccc(COc2ccc3ccccc3c2/C=C2/NC(=O)N(Cc3ccc(F)cc3)C2=O)cc1 | 7.43% (inactive)
Cc1cccc2c1-c1sc(C(=O)Nc3nccs3)cc1CO2 | 27% (inactive)
CCOc1cccc2sc(NN)nc12 | 14.3% (inactive)
O=C(CSc1ccccc1)Nc1cc(Cl)ccc1Oc1ccccc1 | 3.1% (inactive)
CC1=NN2C(=N)/C(=C\c3ccc(SCc4ccccc4)o3)C(=O)N=C2S1 | 21.1% (inactive)
CCOC(=O)c1ccc(NC(=O)Cn2nnc(-c3ccccc3)n2)cc1 | 12.9% (inactive)
COc1ccccc1N1CCN(Cc2cc(C)c(C)cc2O)CC1 | 25.1% (inactive)
C/C(=N\NS(=O)(=O)c1ccccc1)c1cccc(NC(=O)c2cccc(Cl)c2)c1 | 15.9% (inactive)
O=[N+]([O-])c1ccc(-c2c(O)c3ccccc3c3nc4ccccc4nc23)cc1 | 25.8% (inactive)
COc1cc(C2N=C(c3ccccc3)NO2)cc(Br)c1O (configuration not stated) | 18.4% (inactive)
COc1ccc(Cn2c(C)c(C)c(C#N)c2NC(=O)Nc2cccc(Cl)c2)cc1 | 10.6% (inactive)
O=CNCC(=O)NCCc1ccc(Cl)cc1 | 1.49% (inactive)
O=C(O)c1cccc(-n2cccc2/C=C2/NC(=O)N(c3ccc(Cl)cc3)C2=O)c1 | 10.4% (inactive)
O=C(O)c1ccc2[nH]c3c(c2c1)CSCC3 | 2.13% (inactive)
CC(=O)c1ccc(N2CCN(C(=O)c3cc(-c4cccnc4)nc4ccc(Br)cc34)CC2)cc1 | 0.41% (inactive)

Structure (SMILES) | CPE inhibition
CC(C)(C)c1ccc(N/N=C(\C#N)S(=O)(=O)C(C)(C)C)cc1 | 23.9% (inactive)
COc1ccc(CCN(C)Cc2ccc(F)cc2F)cc1OC | 3.03% (inactive)
O=c1[nH]n2c(=O)c3c([nH]c2c1N=Nc1cccc(Cl)c1)CCC3 | 16.8% (inactive)
O=c1[nH]c(SCc2ccccc2)nnc1-c1ccccc1 | 3.2% (inactive)
Cc1ccc(CSc2nnc(NC(=O)C3COc4ccccc4O3)s2)cc1 (configuration not stated) | 26.6% (inactive)
O=C(c1ccco1)N1CCN(c2nc(-c3ccc(F)cc3)cs2)CC1 | 17.1% (inactive)
CC1Cc2ccccc2N1C(=O)CSc1ccccc1 (configuration not stated) | -1.84% (inactive)
CCOc1ccc(NC(=O)Nc2cc(-c3ccccc3)sc2C(=O)OC)cc1 | 14.7% (inactive)
C=CCn1c(SC(C)C(N)=O)nc2sc(CC)cc2c1=O (configuration not stated) | 18% (inactive)
CC(C)CSC1=NSC2=NC(=O)/C(=C\c3coc4ccccc4c3=O)C(=N)N12 | 14% (inactive)
CCCCn1c(SCC(=O)N2CCN(c3ccccc3)CC2)nc2ccsc2c1=O | 6.77% (inactive)
Brc1ccccc1/C=N/Nc1ccc2ccccc2n1 | 14.7% (inactive)
COc1ccc(C2=Nn3c(nnc3-c3ccncc3)SC2)cc1OC | 20.1% (inactive)
CCOC(=O)c1csc(NC(=O)CC2CCCC2)n1 | 6.07% (inactive)
COc1ccc(-c2csc(Nc3ncccc3C)n2)cc1OC | 14.9% (inactive)
COc1cccc(-n2c(C)cc(/C=C3/C(=N)N4C(=NC3=O)SN=C4S(C)(=O)=O)c2C)c1 | 19.6% (inactive)
CCc1cc2c(=O)c(-c3cscn3)coc2c(CN(C)C)c1O | 5.92% (inactive)
COc1ccc(NC(=O)C(=O)N/N=C/c2cc(C)n(-c3cccc(Cl)c3Cl)c2C)c(OC)c1 | 20.7% (inactive)
O=C(O)c1c(NC(=O)c2cccc3ccccc23)sc2c1CCC2 | 0.01% (inactive)
Cc1ccc(C)c(Cn2nnc3c(=O)[nH]c(C(=O)Nc4ccc(F)cc4)nc32)c1 | 11.9% (inactive)
COc1ccc(CN(C(=O)CSc2nnc(-c3ccc(F)cc3)o2)c2ccc(F)cc2)cc1 | 21.3% (inactive)
COC(=O)c1ccccc1N/C=C/C(=O)c1ccc(Br)cc1 | 28.6% (inactive)
N=C1/C(=C/c2ccc(-c3cccc(C(=O)O)c3)o2)C(=O)N=C2SC=C(c3ccccc3)N12 | 16.8% (inactive)
